Data published in ChEMBL document CHEMBL1133258, “Synthesis and evaluation of quinoxalinones as HIV-1 reverse transcriptase inhibitors” (Bioorg Med Chem Lett, 2000).

Assays:
[1] = molecular target: Human immunodeficiency virus type 1 reverse transcriptase (Human immunodeficiency virus 1) (UniProt Q72547)
Description: Inhibitory concentration for 90% inhibition of HIV-1 reverse transcriptase, whole cell based antiviral assay

[2] = molecular target: Human immunodeficiency virus type 1 reverse transcriptase (Human immunodeficiency virus 1, UniProt Q72547); test: Inhibitory concentration for 50% inhibition of HIV-1 reverse transcriptase

Structure (SMILES) | IC90 [1] [nM] | IC50 [2] [nM]
CCOC(=O)N1c2cc(F)ccc2NC(=O)C1(C#CC1CC1)C(F)(F)F (stereo unspecified) | 8 | 121
CC(C)COC(=O)N1c2ccccc2NC(=O)C1(C#CC1CC1)C(F)(F)F (stereo unspecified) | 158 | 1140
CCOC(=O)N1c2ccccc2NC(=O)C1(C#CC1CC1)C(F)(F)F (stereo in doubt; 6m) [listing 1 of 2 here] | – | 118
O=C1Nc2ccc(Cl)cc2N(CC2CC2)C1(C#CC1CC1)C(F)(F)F (stereo unspecified) | 27 | 329
C=CCN1c2ccccc2NC(=O)C1(C#CC1CC1)C(F)(F)F (stereo unspecified) | 22 | 601
C=C(C)OC(=O)N1c2cc(Cl)ccc2NC(=O)C1(C#CC1CC1)C(F)(F)F (stereo unspecified) | 15 | 315
C#CCN1c2ccccc2NC(=O)C1(C#CC1CC1)C(F)(F)F (stereo unspecified) | 53 | 1810
COc1ccc2c(c1)N(CC1CC1)C(C#CC1CC1)(C(F)(F)F)C(=O)N2 (stereo unspecified) | 19 | 109
O=C1Nc2ccccc2N(CC2CC2)C1(C#CC1CC1)C(F)(F)F (stereo in doubt; 6a) [listing 1 of 2 here] | 17 | –
CCCS(=O)(=O)N1c2ccccc2NC(=O)C1(C#CC1CC1)C(F)(F)F (stereo unspecified) | > 1000 | > 5000
CC[C@H]1C(=O)Nc2ccc(F)cc2N1C(=O)OC(C)C [OPAVIRALINE] | 11 | 179
CC(C)CN1c2cc(Cl)ccc2NC(=O)C1(C#CC1CC1)C(F)(F)F (stereo unspecified) | 52 | 404
CC(C)OC(=O)N1c2cc(Cl)ccc2NC(=O)C1(C#CC1CC1)C(F)(F)F (stereo unspecified) | 19 | 160
CCOC(=O)N1c2ccccc2NC(=O)C1(C#CC1CC1)C(F)(F)F (stereo in doubt; 6m) [listing 2 of 2 here] | 9 | –
C=CCN1c2cc(Cl)ccc2NC(=O)C1(C#CC1CC1)C(F)(F)F (stereo unspecified) | 85 | 650
O=C1Nc2ccccc2N(CC2CC2)C1(C#CC1CC1)C(F)(F)F (stereo in doubt; 6a) [listing 2 of 2 here] | – | 253
CCOC(=O)N1c2ccccc2NC(=O)C1(C#CC1CC1)C(F)(F)F (stereo in doubt) [listing 1 of 2 here] | 4.8 | –
O=C1Nc2ccccc2N(CC2CC2)C1(C#CC1CC1)C(F)(F)F (stereo in doubt; 6z) [listing 1 of 2 here] | – | 127
CCS(=O)(=O)N1c2ccccc2NC(=O)C1(C#CC1CC1)C(F)(F)F (stereo unspecified) | > 1000 | > 5000

Structure (SMILES) | IC90 [1] [nM] | IC50 [2] [nM]
O=C1Nc2ccc(F)cc2N(CC2CC2)C1(C#CC1CC1)C(F)(F)F (stereo unspecified) | 23 | 263
CCOC(=O)N1c2cc(Cl)ccc2NC(=O)C1(C#CC1CC1)C(F)(F)F (stereo unspecified) | 11 | 127
O=C1Nc2ccccc2N(CC2CC2)C1(C#CC1CC1)C(F)(F)F (stereo in doubt; 6z) [listing 2 of 2 here] | 11 | –
O=C1Nc2ccccc2N(Cc2ccccc2)C1(C#CC1CC1)C(F)(F)F (stereo unspecified) | 21 | 1820
C=CCN1c2cc(OC)ccc2NC(=O)C1(C#CC1CC1)C(F)(F)F (stereo unspecified) | 29 | 123
C=C(C)OC(=O)N1c2ccccc2NC(=O)C1(C#CC1CC1)C(F)(F)F (stereo unspecified) | 11 | 169
CCOC(=O)N1c2ccccc2NC(=O)C1(C#CC1CC1)C(F)(F)F (stereo in doubt) [listing 2 of 2 here] | – | 45
CC(C)C(I)N1c2ccccc2NC(=O)C1(C#CC1CC1)C(F)(F)F (stereo unspecified) | 19 | 160
CC(C)OC(=O)N1c2ccccc2NC(=O)C1(C#CC1CC1)C(F)(F)F (stereo unspecified) | 15 | 108
CC(C)OC(=O)N1c2cc(F)ccc2NC(=O)C1(C#CC1CC1)C(F)(F)F (stereo unspecified) | 9 | 130
C=C(C)OC(=O)N1c2cc(F)ccc2NC(=O)C1(C#CC1CC1)C(F)(F)F (stereo unspecified) | 8 | 183
COC(=O)N1c2ccccc2NC(=O)C1(C#CC1CC1)C(F)(F)F (stereo unspecified) | 44 | 504
C=CCN1c2cc(F)ccc2NC(=O)C1(C#CC1CC1)C(F)(F)F (stereo unspecified) | 21 | 124
CCCCOC(=O)N1c2ccccc2NC(=O)C1(C#CC1CC1)C(F)(F)F (stereo unspecified) | 105 | 672
O=C(c1ccccc1)N1c2ccccc2NC(=O)C1(C#CC1CC1)C(F)(F)F (stereo unspecified) | > 1000 | > 5000
O=C1Nc2ccccc2N(CCC2CC2)C1(C#CC1CC1)C(F)(F)F (stereo unspecified) | 32 | 340
CC(C)S(=O)(=O)N1c2ccccc2NC(=O)C1(C#CC1CC1)C(F)(F)F (stereo unspecified) | > 1000 | > 5000
C=CCOC(=O)N1c2ccccc2NC(=O)C1(C#CC1CC1)C(F)(F)F (stereo unspecified) | 30 | 147
